The first assay deals with full-length human PIKFYVE (Homo sapiens (Human), UniProt Q9Y2I7, L932S/Q1183K/Q995L/S1033A/S696N/T998S). Put plainly: PIKfyve biochemical assay (ADP-Glo Kinase assay, Carna Biosciences). The note with it: ADP-Glo, GST-PIKFYVE, 10 μM to 3 nM; read-out: hPIKfyve IC50. As for the experimental part: (§1) PIKfyve Biochemical Assay. The biochemical PIKFyve inhibition assays were run by Carna Biosciences according to proprietary methodology based on the Promega ADP-Glo™ Kinase assay. […] GST-PIKFYVE was purified by using glutathione sepharose chromatography and used in an ADP-Glo™ Kinase assay (Promega). Reactions were set up by adding the test compound solution, substrate solution, ATP solution and kinase solution, each at 4× final concentrations. Reactions were prepared with assay buffer (50 mM MOPS, 1 mM DTT, pH7.2), mixed, and incubated in black 384 well polystyrene plates for 1 hour at room temperature. ADPGlo™ reagent was then added for 40 minutes, followed by kinase detection reagent for an additional 40 minutes. The kinase activity was evaluated by detecting relative light units on a luminescence plate reader. Samples were run in duplicate from 10 μM to 3 nM. […] IC50 values were calculated from concentration vs % inhibition curves by fitting to a four-parameter logistic curve.
Sequence of full-length human PIKFYVE (Q9Y2I7 whole entry S696N/L932S/Q995L/T998S/S1033A/Q1183K): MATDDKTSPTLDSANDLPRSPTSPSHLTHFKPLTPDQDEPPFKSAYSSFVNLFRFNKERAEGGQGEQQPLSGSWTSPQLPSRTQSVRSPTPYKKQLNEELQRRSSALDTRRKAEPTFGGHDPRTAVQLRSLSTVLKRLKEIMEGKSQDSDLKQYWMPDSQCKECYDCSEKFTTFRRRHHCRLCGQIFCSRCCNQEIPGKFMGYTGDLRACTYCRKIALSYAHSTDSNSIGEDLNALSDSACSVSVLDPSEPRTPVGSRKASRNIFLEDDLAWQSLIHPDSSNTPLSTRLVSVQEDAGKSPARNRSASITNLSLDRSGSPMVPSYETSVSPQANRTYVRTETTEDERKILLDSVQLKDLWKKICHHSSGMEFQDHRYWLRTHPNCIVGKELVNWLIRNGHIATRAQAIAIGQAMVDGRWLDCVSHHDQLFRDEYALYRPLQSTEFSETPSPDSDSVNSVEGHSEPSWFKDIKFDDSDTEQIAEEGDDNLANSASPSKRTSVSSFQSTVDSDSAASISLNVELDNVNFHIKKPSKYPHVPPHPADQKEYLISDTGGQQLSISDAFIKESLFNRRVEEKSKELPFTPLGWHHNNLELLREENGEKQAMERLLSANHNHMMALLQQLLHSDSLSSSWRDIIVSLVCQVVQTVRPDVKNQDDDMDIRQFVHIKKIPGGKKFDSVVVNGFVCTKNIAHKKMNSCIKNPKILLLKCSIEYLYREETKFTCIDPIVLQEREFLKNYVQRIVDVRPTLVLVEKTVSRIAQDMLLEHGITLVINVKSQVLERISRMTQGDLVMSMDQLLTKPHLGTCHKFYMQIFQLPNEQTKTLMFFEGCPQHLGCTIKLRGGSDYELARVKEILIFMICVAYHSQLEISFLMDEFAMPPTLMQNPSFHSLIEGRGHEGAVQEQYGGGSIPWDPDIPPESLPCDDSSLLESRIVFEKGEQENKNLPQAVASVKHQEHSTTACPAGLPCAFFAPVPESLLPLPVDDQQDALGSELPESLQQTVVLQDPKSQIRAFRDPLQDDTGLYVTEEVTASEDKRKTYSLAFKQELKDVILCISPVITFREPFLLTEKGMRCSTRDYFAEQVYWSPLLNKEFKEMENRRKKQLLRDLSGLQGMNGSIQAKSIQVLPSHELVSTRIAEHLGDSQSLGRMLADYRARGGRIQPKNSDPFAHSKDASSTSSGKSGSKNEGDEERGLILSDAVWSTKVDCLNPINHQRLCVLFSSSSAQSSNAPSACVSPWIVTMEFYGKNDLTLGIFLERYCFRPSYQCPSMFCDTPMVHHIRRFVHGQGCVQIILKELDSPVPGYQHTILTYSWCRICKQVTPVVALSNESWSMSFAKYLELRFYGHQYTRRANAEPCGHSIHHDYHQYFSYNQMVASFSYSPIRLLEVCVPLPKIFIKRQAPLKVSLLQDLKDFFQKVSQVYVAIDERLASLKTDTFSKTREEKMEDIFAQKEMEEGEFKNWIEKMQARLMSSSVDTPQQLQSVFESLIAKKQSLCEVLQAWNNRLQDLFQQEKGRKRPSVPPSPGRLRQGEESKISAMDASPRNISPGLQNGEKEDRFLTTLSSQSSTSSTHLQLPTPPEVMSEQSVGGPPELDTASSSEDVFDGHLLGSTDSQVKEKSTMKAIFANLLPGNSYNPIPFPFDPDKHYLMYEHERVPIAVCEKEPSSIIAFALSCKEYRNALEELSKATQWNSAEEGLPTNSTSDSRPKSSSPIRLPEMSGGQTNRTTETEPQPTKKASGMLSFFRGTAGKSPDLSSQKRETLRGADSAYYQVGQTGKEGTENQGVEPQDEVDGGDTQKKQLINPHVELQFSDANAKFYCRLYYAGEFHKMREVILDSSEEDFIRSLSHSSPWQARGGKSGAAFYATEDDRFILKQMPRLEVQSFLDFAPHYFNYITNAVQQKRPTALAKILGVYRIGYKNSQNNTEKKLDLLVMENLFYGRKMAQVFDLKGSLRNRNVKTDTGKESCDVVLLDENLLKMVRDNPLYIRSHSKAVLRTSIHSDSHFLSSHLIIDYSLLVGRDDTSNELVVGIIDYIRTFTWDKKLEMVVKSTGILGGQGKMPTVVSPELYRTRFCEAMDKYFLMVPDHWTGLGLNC
as §1, with “The” for “PIKfyve Biochemical Assay. The”, “ADP-Glo™” for “ADPGlo™”, “uM” for “μM”, “curve. […]” for “curve.”
`Cn1c(-c2ccncc2)nc2c(N3CCOCC3)nc(NC3CCCC3)nc21` [Compound 102, N-cyclopentyl-9-methyl-6-morpholino-8-(pyridin-4-yl)-9H-purin-2-amine]: the half-inhibitory concentration (IC50) is 10 to 100 nM.

In the case of `Cn1c(-c2ccncc2)nc2c(N3CCOCC3)nc(-c3ccn(C4CCCNC4)n3)nc21` (stereo not drawn) [Compound 41], the IC50 was 100 to 1000 nM.

For the compound `c1ccc(-c2nccc(-c3nc(N4CCOCC4)c4cc(-c5ccncc5)sc4n3)n2)cc1` [Compound 122], the IC50 was 10 to 100 nM.

For `FC(F)n1c(-c2ccncc2)nc2c(N3CCOCC3)nc(-c3ccnc(-c4ccccc4)n3)nc21` [Compound 105, 4-(9-(difluoromethyl)-2-(2-phenylpyrimidin-4-yl)-8-(pyridin-4-yl)-9H-purin-6-yl)morpholine], the IC50 was 1000 to 10000 nM.

Turning to `Cn1c(-c2ccncc2)nc2c(N3CCOCC3)nc(-n3ccc(C4CCOCC4)n3)nc21` [Compound 25], the IC50 was 100 to 1000 nM.

For the compound `Cn1c(-c2ccncc2)nc2c(N3CCOCC3)nc(-c3ccnn3C3CCCN(C(=O)OC(C)(C)C)C3)nc21` (stereo not drawn) [Compound 42], the IC50 fell in the range of 100 to 1000 nM.

Take `Cn1c(-c2ccncc2)nc2c(N3CCOCC3)nc(-n3ccc(C4CC5(C4)CN(C(=O)OC(C)(C)C)C5)n3)nc21` [Compound 34]: the IC50 was in the range of 100 to 1000 nM.

Turning to `Cn1c(-c2ccncc2)nc2c(N3CCOCC3)nc(-c3cccc(C4CCNCC4)n3)nc21` [Compound 3], the IC50 was 10 to 100 nM.

With `CN1CCC(c2ccn(-c3nc(N4CCOCC4)c4nc(-c5ccncc5)n(C)c4n3)n2)CC1` [Compound 18], the IC50 lay within 100 to 1000 nM.

Turning to `CN1CCC(c2nc3c(N4CCOCC4)nc(-n4ccc(-c5ccccc5)n4)nc3n2C)CC1` [Compound 9], the IC50 fell in the range of 100 to 1000 nM.

As to `Cn1c(C2CCOCC2)nc2c(N3CCOCC3)nc(-c3noc(-c4ccccc4)n3)nc21` [Compound 89, 4-(9-methyl-2-(5-phenyl-1,2,4-oxadiazol-3-yl)-8-(tetrahydro-2H-pyran-4-yl)-9H-purin-6-yl)morpholine], the IC50 fell in the range of 100 to 1000 nM.

For the compound `c1cc(-c2nc3c(N4CCOCC4)nc(-n4ccc(C5CCCNC5)n4)nc3[nH]2)ccn1` (stereo not drawn) [Compound 22], the IC50 was in the range of 10 to 100 nM.

Take `Cn1c(-c2ccncc2)nc2c(N3CCOCC3)nc(-n3nc(C4CCCCC4)[nH]c3=O)nc21` [Compound 50, 3-cyclohexyl-1-[9-methyl-6-(morpholin-4-yl)-8-(pyridin-4-yl)-9H-purin-2-yl]-4,5-dihydro-1H-1,2,4-triazol-5-one]: the IC50 fell in the range of 100 to 1000 nM.

Regarding `Cn1c(C2CCOCC2)nc2c(N3CCOCC3)nc(-n3ccc(-c4cccc(C#N)c4)n3)nc21` [Compound 39], the IC50 fell in the range of 1000 to 10000 nM.

For the compound `CC1CC(c2cccc(-c3nc(N4CCOCC4)c4nc(-c5ccncc5)n(C)c4n3)n2)CCN1` (stereo not drawn) [Compound 91, 4-(9-methyl-2-(6-(2-methylpiperidin-4-yl)pyridin-2-yl)-8-(pyridin-4-yl)-9H-purin-6-yl)morpholine], the IC50 is 100 to 1000 nM.

For `Cn1c(-c2ccncc2)nc2c(N3CCOCC3)nc(-c3ccnc(C4CCNCC4)n3)nc21` [Compound 108, 4-(9-methyl-2-(2-(piperidin-4-yl)pyrimidin-4-yl)-8-(pyridin-4-yl)-9H-purin-6-yl)morpholine], the IC50 was less than 10 nM.

Consider `Cn1c(-c2ccncc2)nc2c(N3CCOCC3)nc(C3CC3)nc21` [Compound 110, 4-(2-cyclopropyl-9-methyl-8-(pyridin-4-yl)-9H-purin-6-yl)morpholine], for which the IC50 is less than 10 nM.

In the case of `Cn1c(-c2ccncc2)nc2c(N3CCOCC3)nc(-c3noc(C4CCCN(C(=O)OC(C)(C)C)C4)n3)nc21` (stereo not drawn) [Compound 33, tert-butyl 3-{3-[9-methyl-6-(morpholin-4-yl)-8-(pyridin-4-yl)-9H-purin-2-yl]-1,2,4-oxadiazol-5-yl}piperidine-1-carboxylate], the IC50 fell in the range of 100 to 1000 nM.

With `Cn1c(-c2ccncc2)nc2c(N3CCOCC3)nc(-n3ccc(CC4CN(C(=O)OC(C)(C)C)C4)n3)nc21` [Compound 84, tert-butyl 3-((1-(9-methyl-6-morpholino-8-(pyridin-4-yl)-9H-purin-2-yl)-1H-pyrazol-3-yl)methyl)azetidine-1-carboxylate], the IC50 lay within 10 to 100 nM.

Consider `Cn1c(-c2ccncc2)nc2c(N3CCOCC3)nc(-n3ccc(C4CCNC4)n3)nc21` (stereo not drawn) [Compound 38], for which the IC50 lay in the range of 100 to 1000 nM.

Turning to `Cn1c(-c2ccncc2)nc2c(N3CCOCC3)nc(-c3cc[nH]n3)nc21` [Compound 49], the IC50 was in the range of 10 to 100 nM.

For the compound `Cn1c(-c2ccncc2)nc2c(N3CCOCC3)nc(-c3ccn(C4CCCN(C(=O)OC(C)(C)C)C4)n3)nc21` (stereo not drawn) [Compound 43], the IC50 is 100 to 1000 nM.

As for `CN1CCCC(c2nc(-c3nc(N4CCOCC4)c4nc(-c5ccncc5)n(C)c4n3)no2)C1` (stereo not drawn) [Compound 30], the concentration for half-maximal inhibition (IC50) lay within 100 to 1000 nM.

With `Cn1c(-c2ccncc2)nc2c(N3CCOCC3)nc(-c3cccc4c3OCCO4)nc21` [Compound 44], the IC50 was in the range of 100 to 1000 nM.

Regarding `Cn1c(-c2ccncc2)nc2c(N3CCOCC3)nc(-n3ccc(C4CCN(C(=O)OC(C)(C)C)C4)n3)nc21` (stereo not drawn) [Compound 40], the IC50 lay within 100 to 1000 nM.

As to `Cn1c(-c2ccncc2)nc2c(N3CCOCC3)nc(-n3cc(-c4ccccc4)cn3)nc21` [Compound 92, 4-(9-methyl-2-(4-phenyl-1H-pyrazol-1-yl)-8-(pyridin-4-yl)-9H-purin-6-yl)morpholine], the 50% inhibitory concentration (IC50) was in the range of 10 to 100 nM.

For `Cn1c(C2CCOCC2)nc2c(N3CCOCC3)nc(-n3ccc(-c4cncnc4)n3)nc21` [Compound 20], the IC50 fell in the range of 1000 to 10000 nM.

`Cn1c(C2CN(C(=O)OC(C)(C)C)C2)nc2c(N3CCOCC3)nc(-n3ccc(-c4ccccc4)n3)nc21` [Compound 13, tert-butyl 3-(9-methyl-6-morpholino-2-(3-phenyl-1H-pyrazol-1-yl)-9H-purin-8-yl)azetidine-1-carboxylate]: the IC50 was 10 to 100 nM.

Regarding `Cn1c(-c2ccncc2)nc2c(N3CCOCC3)nc(-n3ccc(C4CC5(CNC5)C4)n3)nc21` [Compound 35], the IC50 was 10 to 100 nM.

`Cn1c(-c2ccncc2)nc2c(N3CCOCC3)nc(-c3cccnc3)nc21` [Compound 104, 4-(9-methyl-2-(pyridin-3-yl)-8-(pyridin-4-yl)-9H-purin-6-yl)morpholine]: the IC50 is 10 to 100 nM.

With `Cn1c(-c2ccncc2)nc2c(N3CCOCC3)nc(-c3ccc(Cl)cn3)nc21` [Compound 98, 4-(2-(5-chloropyridin-2-yl)-9-methyl-8-(pyridin-4-yl)-9H-purin-6-yl)morpholine], the IC50 lay within 10 to 100 nM.

With `Cn1c(-c2ccncc2)nc2c(N3CCOCC3)nc(-n3ccc(-c4ccncc4)n3)nc21` [Compound 27], the IC50 was 10 to 100 nM.

With `Cn1c(C2=CCOCC2)nc2c(N3CCOCC3)nc(-n3ccc(-c4cccnc4)n3)nc21` [Compound 85, 4-(8-(3,6-dihydro-2H-pyran-4-yl)-9-methyl-2-(3-(pyridin-3-yl)-1H-pyrazol-1-yl)-9H-purin-6-yl)morpholine], the IC50 lay within 10 to 100 nM.

With `CN1CCCC(c2ccn(-c3nc(N4CCOCC4)c4nc(C5CCOCC5)n(C)c4n3)n2)C1` (stereo not drawn) [Compound 15], the IC50 was 1000 to 10000 nM.

`c1ccc(-c2nccc(-c3nc(N4CCOCC4)c4sc(-c5ccncc5)nc4n3)n2)cc1` [Compound 125]: the IC50 lay within 100 to 1000 nM.

In the case of `CN1CC(Cc2ccn(-c3nc(N4CCOCC4)c4nc(-c5ccncc5)n(C)c4n3)n2)C1` [Compound 86, 4-(9-methyl-2-(3-((1-methylazetidin-3-yl)methyl)-1H-pyrazol-1-yl)-8-(pyridin-4-yl)-9H-purin-6-yl)morpholine], the IC50 is less than 10 nM.

With `Cn1c(-c2ccncc2)nc2c(N3CCOCC3)nc(-c3ccnc(C4CC4)n3)nc21` [Compound 97, 4-(2-(2-cyclopropylpyrimidin-4-yl)-9-methyl-8-(pyridin-4-yl)-9H-purin-6-yl)morpholine], the IC50 fell in the range of 10 to 100 nM.

With `Cn1c(-c2ccncc2)nc2c(N3CCOCC3)nc(-c3ccc4c(c3)OCO4)nc21` [Compound 99, 4-(2-(benzo[d][1,3]dioxol-5-yl)-9-methyl-8-(pyridin-4-yl)-9H-purin-6-yl)morpholine], the IC50 lay in the range of 10 to 100 nM.

As to `Cn1c(-c2ccncc2)nc2c(N3CCOCC3)nc(-c3noc(C4CCCNC4)n3)nc21` (stereo not drawn) [Compound 31], the IC50 is 100 to 1000 nM.

Regarding `Cn1c(C2CCCNC2)nc2c(N3CCOCC3)nc(-n3ccc(-c4ccccc4)n3)nc21` (stereo not drawn) [Compound 10], the IC50 is 100 to 1000 nM.

With `Cn1c(-c2ccncc2)nc2c(N3CCOCC3)nc(-n3cc(-c4ccncc4)cn3)nc21` [Compound 93, 4-(9-methyl-8-(pyridin-4-yl)-2-(4-(pyridin-4-yl)-1H-pyrazol-1-yl)-9H-purin-6-yl)morpholine], the IC50 was 10 to 100 nM.

The assay is the same for the next values; noted with them: values plotted in FIG. 7; read-out: PIKFYVE Biochemistry (IC50).
For `c1ccc(-c2nc(-c3cc(N4CCOCC4)nc(OCc4ccncc4)n3)no2)cc1`, the IC50 is more than 10000 nM.

By IC50 is commonly meant the concentration that gives 50% inhibition.

The values are drawn from patent US20240150358A1, “PURINES AND METHODS OF THEIR USE” (Kineta, Inc., priority 2020, published 2024).
